Experimental data: US6465482B2, “Arylpiperazinyl-cyclohexyl indole derivatives for the treatment of depression” (Wyeth, priority 1999, dated 2002)
Structures can show the parent of a compound that is named as a salt.

Tests used:
[1] = biological target: T1, human 5-HT1A receptor subtype (Homo sapiens, UniProt P08908); assay: 5-HT1A receptor binding, [3H]8-OH-DPAT, CHO cell membranes; settings: for Ki: [3H]8-OH-DPAT 1.5 nM; for 5-HT1A, value given as %: concentration not given
T1 construct: expressed in transfected cells
T1 sequence (P08908 1-422): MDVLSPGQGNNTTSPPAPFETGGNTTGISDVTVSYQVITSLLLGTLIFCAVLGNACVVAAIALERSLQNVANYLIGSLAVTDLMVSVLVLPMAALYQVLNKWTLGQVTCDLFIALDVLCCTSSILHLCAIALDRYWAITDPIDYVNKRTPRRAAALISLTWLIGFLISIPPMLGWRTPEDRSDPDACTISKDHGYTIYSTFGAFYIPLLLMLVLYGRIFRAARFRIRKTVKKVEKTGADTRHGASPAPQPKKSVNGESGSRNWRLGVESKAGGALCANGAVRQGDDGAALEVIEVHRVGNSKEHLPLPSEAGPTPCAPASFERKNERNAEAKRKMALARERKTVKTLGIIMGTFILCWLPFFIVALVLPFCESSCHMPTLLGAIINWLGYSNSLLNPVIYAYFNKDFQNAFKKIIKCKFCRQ
Method: The PCR cloning of the human 5-HT1A receptor subtype from a human genomic library has been described previously Chanda et al., Mol. Pharmacol., 43:516 (1993). A stable Chinese hamster ovary cell line expressing the human 5-HT1A receptor subtype (5-HT1A.CH2O cells) was employed throughout this study. Cells were maintained in DMEM supplemented with 10% fetal calf serum, non-essential amino acids and penicillin/streptomycin.
Cells were grown to 95-100% confluency as a monolayer before membranes were harvested for binding studies. Cells were gently scraped from the culture plates, transferred to centrifuge tubes, and washed twice by centrifugation (2000 rpm for 10 min., 4° C.) in buffer (50 mM Tris; pH 7.5). The resulting pellets were aliquoted and placed at −80° C. On the day of assay, the cells were thawed on ice, and resuspended in buffer. Studies were conducted using [^3H]8-OH-DPAT as the radioligand. The binding assay was performed in 96 well microtiter plates in a final total volume of 250 μL of buffer. Competition experiments were performed by using 7 concentrations of unlabelled drug and a final ligand concentration of 1.5 nM. Non-specific binding was determined in the presence of 10 μM 5HT. Saturation analysis was conducted by using [^3H]8-OH-DPAT at concentaritions ranging from 0.3-30 nm Following a 30 minute incubation at room temperature, the reaction was terminated by the addition of ice cold buffer and rapid filtration using a M-96 Brandel Cell Harvester (Gaithersburg, Md.) through a GF/B filter presoaked for 30 minutes in 0.5% polyethylenenimine.

Structure (SMILES)	melting point	Ki [1] [nM]	other results
COc1ccc2[nH]cc([C@H]3CC[C@@H](N4CCN(c5ccccc5OC)CC4)CC3)c2c1 [Example 20a, 5-Methoxy-3-{(1,4-cis)-4-[4-(2-methoxy-phenyl)-piperazin-1-yl]-cyclohexyl}-1H-indole]		631	
CCn1cc([C@H]2CC[C@@H](N3CCN(c4cccc5[nH]ccc45)CC3)CC2)c2cc(C#N)ccc21 [Example 13a, 1-Ethyl-3-{(1,4-cis)-4-[4-(1H-indol-4-yl)-piperazin-1-yl]-cyclohexyl}-1H-indole-5-carbonitrile]		563	
Fc1cc2c(c(N3CCN([C@H]4CC[C@H](c5c[nH]c6ccc(F)cc65)CC4)CC3)c1)OCCC2 [Example 31b, 5-Fluoro-3-{(1,4-trans)-4-[4-(6-fluoro-chroman-8-yl)-piperazin-1-yl]-cyclohexyl}-1H-indole]		32.4	
CCCn1cc([C@H]2CC[C@@H](N3CCN(c4cccc5[nH]ccc45)CC3)CC2)c2cc(C#N)ccc21 [Example 14a, 3-{(1,4-cis)-4-[4-(1H-Indol-4-yl)-piperazin-1-yl]-cyclohexyl}-1-propyl-1H-indole-5-carbonitrile]		820	
Cn1ccc2c(N3CCN([C@H]4CC[C@@H](c5cn(C)c6cc(F)ccc65)CC4)CC3)cccc21 [Example 11, 6-Fluoro-1-methyl-3-{cis-4-[4-(1-methyl-1H-indol-4-yl)-1-piperazinyl]cyclohexyl}-1H-indole]			5-HT1A, value given as % [1]: 0%
Fc1cccc2[nH]cc([C@H]3CC[C@@H](N4CCN(c5cccc6c5OCCO6)CC4)CC3)c12 [Example 23a, 3-{(1,4-cis)-4-[4-(2,3-Dihydro-benzo[1,4]dioxin-5-yl)-piperazin-1-yl]-cyclohexyl}-4-fluoro-1H-indole]		103	
Brc1ccc2[nH]cc([C@H]3CC[C@@H](N4CCN(c5cccc6[nH]ccc56)CC4)CC3)c2c1 [Example 5a, 5-Bromo-3-[cis-4-[4-(1H-indol-4-yl)-1-piperazinyl]cyclohexyl]-1H-indole]			5-HT1A, value given as % [1]: 0%
Fc1ccc2[nH]cc([C@H]3CC[C@@H](N4CCN(c5cccc6cccnc56)CC4)CC3)c2c1 [Example 27a, 8-{4-[(1,4-cis)-4-(5-Fluoro-1H-indol-3-yl)-cyclohexyl]-piperazin-1-yl}-quinoline]		69.7	
Brc1ccc2[nH]cc([C@H]3CC[C@H](N4CCN(c5cccc6[nH]ccc56)CC4)CC3)c2c1 [Example 5b, 5-Bromo-3-[trans-4-[4-(1H-indol-4-yl)-1-piperazinyl]cyclohexyl]-1H-indole]			5-HT1A, value given as % [1]: 78.7%
CCCn1cc([C@H]2CC[C@H](N3CCN(c4cccc5[nH]ccc45)CC3)CC2)c2cc(C#N)ccc21 [Example 14b, 3-{(1,4-trans)-4-[4-(1H-indol-4-yl)-piperazin-1-yl]-cyclohexyl}-1-propyl-1H-indole-5-carbonitrile]			5-HT1A, value given as % [1]: 0%
N#Cc1ccc2[nH]cc([C@H]3CC[C@@H](N4CCN(c5cccc6[nH]ccc56)CC4)CC3)c2c1 (as salt: HCl) [Example 7a, 3-{4-[(1,4-cis)-4-(1H-Indol-4-yl)-piperazinyl-1-yl]cyclohexyl}-1H-indole-5-carbonitrile]	216 to 218 °C		
Fc1cccc2[nH]cc([C@H]3CC[C@H](N4CCN(c5cccc6c5OCCO6)CC4)CC3)c12 [Example 23b, 3-{(1,4-trans)-4-[4-(2,3-Dihydro-benzo[1,4]dioxin-5-yl)-piperazin-1-yl]-cyclohexyl}-4-fluoro-1H-indole]		14.9	
COc1ccccc1N1CCN([C@H]2CC[C@@H](c3c[nH]c4ncccc43)CC2)CC1 [Example 21, 3-{(1,4-cis)-4-[4-(2-Methoxy-phenyl)-piperazin-1-yl]-cyclohexyl}-1H-pyrrolo[2,3-b]pyridine]		110	
Cn1cc([C@H]2CC[C@@H](N3CCN(c4cccc5cccnc45)CC3)CC2)c2cc(C#N)ccc21 (as salt: HCl) [Example 30, 1-Methyl-3-[(1,4-cis)-4-(4-quinolin-8-yl-piperazin-1-yl)-cyclohexyl]-1H-indole-5-carbonitrile]	288 to 289 °C		
Cn1ccc2c(N3CCN([C@H]4CC[C@@H](c5cn(C)c6ccc(C#N)cc65)CC4)CC3)cccc21 (as salt: HCl) [Example 17, 1-Methyl-3-{(1,4-cis)-4-[4-(1-methyl-1H-indol-4-yl)-piperazin-1-yl]-cyclohexyl}-1H-indole-5-carbonitrile]	252 to 255 °C		
Fc1ccc2c(c1)[nH]cc2[C@H]1CC[C@H](N2CCN(c3cccc4c3OCCO4)CC2)CC1 (as salt: HCl) [Example 25b, 3-{(1,4-trans)-4-[4-(2,3-Dihydro-benzo[1,4]dioxin-5-yl)-piperazin-1-yl]-cyclohexyl}-6-fluoro-1H-indole]	309 to 310 °C		
Fc1ccc2[nH]cc([C@H]3CC[C@H](N4CCN(c5cccc6[nH]ccc56)CC4)CC3)c2c1 (as salt: HCl) [Example 3b, 5-Fluoro-3-[trans-4-[4-(1H-indol-4-yl)-1-piperazinyl]cyclohexyl]-1H-indole]	280 °C (dec.)		
CCn1cc([C@H]2CC[C@H](N3CCN(c4cccc5[nH]ccc45)CC3)CC2)c2cc(C#N)ccc21 [Example 13b, 1-Ethyl-3-{(1,4-trans)-4-[4-(1H-indol-4-yl)-piperazin-1-yl]-cyclohexyl}-1H-indole-5-carbonitrile]		827	
Fc1cc2c(c(N3CCN([C@H]4CC[C@H](c5c[nH]c6ccc(F)cc65)CC4)CC3)c1)OCCC2 (as salt: HCl) (hydrate or solvate) [Example 31b, 5-Fluoro-3-{(1,4-trans)-4-[4-(6-fluoro-chroman-8-yl)-piperazin-1-yl]-cyclohexyl}-1H-indole]	286 to 288 °C		
COc1ccccc1C1CCN([C@H]2CC[C@H](c3c[nH]c4ccc(F)cc43)CC2)CC1 (as salt: HCl) [Example 19b, 5-Fluoro-3-{(1,4-trans)-4-[4-(2-methoxy-phenyl)-piperidin-1-yl]-cyclohexyl}-1H-indole]	297 to 299 °C		
Fc1ccc2c(c1)[nH]cc2[C@H]1CC[C@@H](N2CCN(c3cccc4[nH]ccc34)CC2)CC1 (as salt: HCl) [Example 4a, 6-Fluoro-3-[cis-4-[4-(1H-indol-4-yl)-1-piperazinyl]cyclohexyl]-1H-indole]	250 to 252 °C (dec.)		

The next lines start with results.

melting point	Structure (SMILES)	Ki [1] [nM]	other results
105 to 110 °C	COc1cc(N2CCN([C@H]3CC[C@@H](c4cn(C)c5ncccc54)CC3)CC2)c2ncccc2c1 [Example 79, 6-Methoxy-8-{cis-4-[4-(1-methyl-1H-pyrrolo[2,3-b]pyridin-3-yl)cyclohexyl]-1-piperazinyl}quinoline]		
242 to 244 °C	COc1cc(N2CCN(C3CCC(c4c[nH]c5cc(C#N)ccc45)CC3)CC2)c2ncccc2c1 (stereo not shown) [Example 85, 3-{4-[4-(6-Methoxy-8-quinolinyl)-1-piperazinyl]cyclohexyl}-1H-indole-6-carbonitrile]		
314 to 315.5 °C	Clc1ccc2[nH]cc([C@H]3CC[C@H](N4CCN(c5cccc6[nH]ccc56)CC4)CC3)c2c1 (as salt: HCl) (hydrate or solvate) [Example 6b, 5-Chloro-3-[trans-4-[4-(1H-indol-4-yl)-1-piperazinyl]cyclohexyl]-1H-indole]		
199 to 201 °C	N#Cc1ccc2[nH]cc(C3=CCC(N4CCN(c5cccc6[nH]ccc56)CC4)CC3)c2c1 (stereo not shown) (as salt: HCl) [Example 36, 3-{4-[4-(1H-Indol-4-yl)-piperazin-1-yl]-cyclohex-1-enyl}-1H-indole-5-carbonitrile]		
215 to 217 °C	Cn1cc([C@H]2CC[C@@H](N3CCN(c4cc(Br)cc5cccnc45)CC3)CC2)c2cc(F)ccc21 [Example 58a, (cis)-6-Bromo-8-{4-[4-(5-fluoro-1-methyl-1H-indol-3-yl)cyclohexyl]piperazin-1-yl}quinoline]		
201 to 203 °C	Cn1cc([C@H]2CC[C@H](N3CCN(c4cc(C=O)cc5cccnc45)CC3)CC2)c2cc(C#N)ccc21 [Example 72, 8-[4-[(trans)-4-(5-Cyano-1-methyl-1H-indole-3-yl)-cyclohexyl]-piperazin-1-yl]-6-quinolinecarbaldehyde]		
216 to 220 °C	COc1cc(N2CCN([C@H]3CC[C@@H](c4c[nH]c5ncccc54)CC3)CC2)c2ncccc2c1 (as salt: oxalate) [Example 78, 6-Methoxy-8-{cis-4-[4-(1H-pyrrolo[2,3-b]pyridin-3-yl)cyclohexyl]-1-piperazinyl}quinoline]		
